Earlier results in US7138151B2, “Calcium-fortified acidic beverages” (Unilab Pharmatech, Ltd., priority 2002, dated 2006).

Details: initially clear metastable solution from citric acid and calcium base

SMILES: O=C([O-])CC(O)(CC(=O)[O-])C(=O)[O-].O=C([O-])CC(O)(CC(=O)[O-])C(=O)[O-].[Ca+2].[Ca+2].[Ca+2] [in-situ solubilized calcium citrate, calcium citrate]
- time at which calcium citrate starts to precipitate out of solution: ≤ 24 h
